From US20100120884A1, “USE OF DITHIINE-TETRACARBOXIMIDES FOR CONTROLLING PHYTOPATHOGENIC FUNGI” (priority 2008, published 2010)

Test system: not listed separately
Assay: physchem
Type: physicochemical
Settings: pH 2.7
Protocol: The determination of the logP values detailed in the tables and preparation examples hereinabove is carried out in accordance with EEC Directive 79/831 Annex V.A8 by means of HPLC (High Performance Liquid Chromatography) on a reversed-phase column (C 18). Temperature: 43° C.
The determination is carried out in the acidic range at pH 2.7, using 0.1% strength aqueous formic acid and acetonitrile (contains 0.1% formic acid) as eluents; linear gradient from 10% acetonitrile to 95% acetonitrile.
Calibration is carried out using unbranched alkan-2-ones (with 3 to 16 carbon atoms) with known logP values (determination of the logP values with reference to the retention times by linear interpolation between two successive alkanones).
Work on `CC(C)n1c(=O)c2sc3c(=O)n(C(C)C)c(=O)c3sc2c1=O` [Compound 4, 2,6-Di(propan-2-yl)-1H,5H-[1,4]dithiino[2,3-c:5,6-c′]dipyrrole-1,3,5,7(2H,6H)-tetrone] yielded a chromatographic logP of 4.19. Compound `CC(O)Cn1c(=O)c2sc3c(=O)n(CC(C)O)c(=O)c3sc2c1=O` (centres unmarked) [Compound 14, 2,6-Bis(2-hydroxypropyl)-1H,5H-[1,4]dithiino[2,3-c:5,6-c′]dipyrrole-1,3,5,7(2H,6H)-tetrone] has a chromatographic logP of 1.63. Compound `O=c1c2sc3c(=O)n(Cc4ccccc4)c(=O)c3sc2c(=O)n1Cc1ccccc1` [Compound 11, 2,6-Dibenzyl-1H,5H-[1,4]dithiino[2,3-c:5,6-c′]dipyrrole-1,3,5,7(2H,6H)-tetrone] has a chromatographic logP of 4.6. Work on `CCC(Cn1c(=O)c2sc3c(=O)n(CC(CC)OC(C)=O)c(=O)c3sc2c1=O)OC(C)=O` (centres unmarked) [Compound 35, (1,3,5,7-Tetraoxo-1,3,5,7-tetrahydro-2H,6H-[1,4]dithiino[2,3-c:5,6-c′]dipyrrole-2,6-diyl)dibutane-1,2-diyl diacetate] yielded a chromatographic logP of 3.09. `CCn1c(=O)c2sc3c(=O)[nH]c(=O)c3sc2c1=O` [Compound 39, 2-Ethyl-1H,5H-[1,4]dithiino[2,3-c:5,6-c′]dipyrrole-1,3,5,7(2H,6H)-tetrone] gave a chromatographic logP of 2.13. With `CC(=O)OC(C)Cn1c(=O)c2sc3c(=O)n(CC(C)OC(C)=O)c(=O)c3sc2c1=O` (centres unmarked) [Compound 36, (1,3,5,7-Tetraoxo-1,3,5,7-tetrahydro-2H,6H-[1,4]dithiino[2,3-c:5,6-c′]dipyrrole-2,6-diyl)dipropane-1,2-diyl diacetate] the chromatographic logP was 3.09. Compound `CC(CC(=O)O)n1c(=O)c2sc3c(=O)n(C(C)CC(=O)O)c(=O)c3sc2c1=O` (centres unmarked) [Compound 28, 3,3′-(1,3,5,7-Tetraoxo-1,3,5,7-tetrahydro-2H,6H-[1,4]dithiino[2,3-c:5,6-c′]dipyrrole-2,6-diyl)dibutanoic acid] has a chromatographic logP of 1.99. `O=c1c2sc3c(=O)n(CC(F)(F)F)c(=O)c3sc2c(=O)n1CC(F)(F)F` [Compound 6, 2,6-Bis(2,2,2-trifluoroethyl)-1H,5H-[1,4]dithiino[2,3-c:5,6-c′]dipyrrole-1,3,5,7(2H,6H)-tetrone] gave a chromatographic logP of 3.41. With `CCCCC(C(=O)OCC)n1c(=O)c2sc3c(=O)n(C(CCCC)C(=O)OCC)c(=O)c3sc2c1=O` (centres unmarked) [Compound 40, Diethyl 2,2′-(1,3,5,7-tetraoxo-1,3,5,7-tetrahydro-2H,6H-[1,4]dithiino[2,3-c:5,6-e]dipyrrole-2,6-diyl)di-hexanoate] the “log P” value was “log P = 4.66”. Compound `O=c1c2sc3c(=O)n(CCOc4ccccc4)c(=O)c3sc2c(=O)n1CCOc1ccccc1` [Compound 15, 2,6-Bis(2-phenoxyethyl)-1H,5H-[1,4]dithiino[2,3-c:5,6-c′]dipyrrole-1,3,5,7(2H,6H)-tetrone] has a chromatographic logP of 3.86. Work on `O=c1[nH]c(=O)c2sc3c(=O)[nH]c(=O)c3sc12` [Compound 8, 1H,5H-[1,4]Dithiino[2,3-c:5,6-c′]dipyrrole-1,3,5,7(2H,6H)-tetrone] yielded a chromatographic logP of 1.13. `CC(C(=O)O)n1c(=O)c2sc3c(=O)n(C(C)C(=O)O)c(=O)c3sc2c1=O` (centres unmarked) [Compound 24, 2,2′-(1,3,5,7-Tetraoxo-1,3,5,7-tetrahydro-2H,6H-[1,4]dithiino[2,3-c:5,6-c′]dipyrrole-2,6-diyl)dipropanoic acid] showed a chromatographic logP of 1.76. In the case of `Cn1c(=O)c2sc3c(=O)n(C)c(=O)c3sc2c1=O` [Compound 1, 2,6-Dimethyl-1H,5H-[1,4]dithiino[2,3-c:5,6-c′]dipyrrole-1,3,5,7(2H,6H)-tetrone], the chromatographic logP is reported as 2.32. For `O=c1c2sc3c(=O)n(-c4cccc(C(F)(F)F)c4)c(=O)c3sc2c(=O)n1-c1cccc(C(F)(F)F)c1` [Compound 31, 2,6-Bis[3-(trifluoromethyl)phenyl]-1H,5H-[1,4]dithiino[2,3-c:5,6-c′]dipyrrole-1,3,5,7(2H,6H)-tetrone], the chromatographic logP was 4.91. In the case of `O=C(O)C(Cc1ccccc1)n1c(=O)c2sc3c(=O)n(C(Cc4ccccc4)C(=O)O)c(=O)c3sc2c1=O` (centres unmarked) [Compound 32, 2,2′-(1,3,5,7-Tetraoxo-1,3,5,7-tetrahydro-2H,6H-[1,4]dithiino[2,3-c:5,6-c′]dipyrrole-2,6-diyl)bis(3-phenyl-propanoic acid)], the chromatographic logP is reported as 3.12. `O=C(O)CCCCn1c(=O)c2sc3c(=O)n(CCCCC(=O)O)c(=O)c3sc2c1=O` [Compound 29, 5,5′-(1,3,5,7-Tetraoxo-1,3,5,7-tetrahydro-2H,6H-[1,4]dithiino[2,3-c:5,6-c′]dipyrrole-2,6-diyl)dipentanoic acid] gave a chromatographic logP of 2.02. Compound `CCOCCn1c(=O)c2sc3c(=O)n(CCOCC)c(=O)c3sc2c1=O` [Compound 16, 2,6-Bis(2-ethoxyethyl)-1H,5H-[1,4]dithiino[2,3-c:5,6-c′]dipyrrole-1,3,5,7(2H,6H)-tetrone] has a chromatographic logP of 3.24. For `COCCn1c(=O)c2sc3c(=O)n(CCOC)c(=O)c3sc2c1=O` [Compound 12, 2,6-Bis(2-methoxyethyl)-1H,5H-[1,4]dithiino[2,3-c:5,6-c′]dipyrrole-1,3,5,7(2H,6H)-tetrone], the chromatographic logP was 2.55. Work on `CCOC(=O)C(CC)n1c(=O)c2sc3c(=O)n(C(CC)C(=O)O)c(=O)c3sc2c1=O` (centres unmarked) [Compound 41, 2-[2-(1-Ethoxy-1-oxobutan-2-yl)-1,3,5,7-tetraoxo-2,3,5,7-tetrahydro-1H,6H-[1,4]dithiino[2,3-c:5,6-c′]-dipyrrole-6-yl]butanoic acid] yielded a chromatographic logP of 1.73. With `O=c1c2sc3c(=O)n(C4(C(F)(F)F)CC4)c(=O)c3sc2c(=O)n1C1(C(F)(F)F)CC1` [Compound 7, 2,6-Bis[1-(trifluoromethyl)cyclopropyl]-1H,5H-[1,4]dithiino[2,3-c:5,6-c′]dipyrrole-1,3,5,7(2H,6H)-tetrone] the chromatographic logP was 4.03. For `CC(C)(O)Cn1c(=O)c2sc3c(=O)n(CC(C)(C)O)c(=O)c3sc2c1=O` [Compound 34, 2,6-Bis(2-hydroxy-2-methylpropyl)-1H,5H-[1,4]dithiino[2,3-c:5,6-c′]dipyrrole-1,3,5,7(2H,6H)-tetrone], the chromatographic logP was 3.65. For `CCC(O)Cn1c(=O)c2sc3c(=O)n(CC(O)CC)c(=O)c3sc2c1=O` (centres unmarked) [Compound 13, 2,6-Bis(2-hydroxybutyl)-1H,5H-[1,4]dithiino[2,3-c:5,6-c′]dipyrrole-1,3,5,7(2H,6H)-tetrone], the chromatographic logP was 2.27.

Test system: Pyrenophora teres
Assay: Pyrenophora teres test (barley)/protective
Type: in vivo
Settings: protective spray, 1000 ppm active substance, evaluation 8 days after inoculation
Protocol: Pyrenophora teres Test (Barley)/Protective
To prepare a suitable preparation of active substance, 1 part by weight of active substance is mixed with the stated amounts of solvent and emulsifier, and the concentrate is diluted with water to the desired concentration.
To test for protective activity, young plants are sprayed with the active substance preparation at the application rate detailed. After the spray coating has dried on, the plants are sprayed with a spore suspension of Pyrenophora teres. The plants remain in an incubation cabinet for 48 hours at 20° C. and 100% relative atmospheric humidity. The plants are placed in a greenhouse at a temperature of approximately 20° C. and a relative atmospheric humidity of approximately 80%.
Evaluation is carried out 8 days after the inoculation. 0% means an efficacy which corresponds to that of the control, while an efficacy of 100% means that no disease is observed.
`Cn1c(=O)c2sc3c(=O)n(C)c(=O)c3sc2c1=O` [Compound 1, 2,6-Dimethyl-1H,5H-[1,4]dithiino[2,3-c:5,6-c′]dipyrrole-1,3,5,7(2H,6H)-tetrone] showed an efficacy of no less than 70%.
